Patent US20250002954A1, “Novel Compound, Use Thereof, and Method for Producing Same, and Compound-Containing Composition, Method for Producing 4-Trehalosamine, and Microorganism” (Microbial Chemistry Research Foundation, priority 2021, published 2025)

Tests used:
[1] = Dynamics upon oral administration to mice (blood level, urinary and fecal excretion); type: in vivo, ICR mice; conditions: single oral dose 0.5 mg per g of body weight
Protocol: 4-trehalosamine or trehalose dissolved in saline at 0.5 mg/10 μL per g of body weight was orally administered in a single dose to ICR mice (9-week to 10-week old, female, n=5) that had been fasted overnight. The five mice on which the same treatment had been performed were placed in the same cage.
Urine and feces were regularly collected together. The collected feces were suspended in water at 200 mg/mL and centrifuged at 21,300×g for 5 minutes. The centrifuged supernatant of feces suspension and the collected urine were each diluted with methanol to 1/1,000, on which LC-MS analysis was performed under similar conditions to test example 1 and cumulative excretion of 4-trehalosamine (4TA) or trehalose (TRH) over time was calculated.
Blood was regularly collected from tail vein in an amount of around 10 μL to 20 μL, and 200 μL of methanol was added to it after measurement. After agitation on a vortex, it was centrifuged at 21,000×g for 5 minutes. The supernatant was diluted with methanol to ⅕ and LC-MS analysis was performed on it under similar conditions to test example 1. The results for 4-trehalosamine are shown in FIG. 19G and the results for trehalose are shown in FIG. 19H for each individual (n=5).

[2] = pH buffer effect (pH change on addition of HCl or NaOH); type: physicochemical
Protocol: Using the purified product of 4-trehalosamine obtained in the <Purification process> of production example 10, the functionality of 4-trehalosamine as buffer reagent was determined in the following manner.
A change in pH while 50 μL to 100 μL of 1 M hydrochloric acid (HCl) or 1 M sodium hydroxide (NaOH) was added to 50 mL of aqueous solution of 10 mM 4-trehalosamine (production example 10), 50 mL of aqueous solution of 10 mM trehalose, 50 mL of 10 mM tris, 50 mL of aqueous solution of 10 mM MES (2-(N-morpholino) ethanesulfonic acid), or 50 mL of aqueous solution of 10 mM HEPES (4-(2-hydroxyethyl)-1-piperazinylethane sulfonic acid) was measured with a pH meter (LAQUA F-51, manufactured by HORIBA, Ltd.).

[3] = Starch aging inhibiting effect, enzyme assay 1 and 2 (β-amylase degradation of corn starch gel)
Protocol: After the individual test samples were mixed into corn starch gel and left to stand at low temperature for 96 hours, the aging level was evaluated via a degradation experiment using β-amylase. The method described below is an evaluation scheme that is an improvement over the BAP method (K. Kainuma, et al, Journal of the Japanese Society of Starch Science 1981, 28, 235.) and only uses β-amylase.
The 4-trehalosamine (4TA) obtained in production example 10, and trehalose (TRH), sucrose (SCR), and glycerol (hereinafter, sometimes referred to as “GOL”) were each dissolved in water to a final concentration of 10% (w/w), thus preparing aqueous solutions. […]
Quantification (absorbance measurement) of enzyme reaction and sugar were performed for the 24-hour, the 48-hour, or the 96-hour sample in a similar manner to the quantification (absorbance measurement) of enzyme reaction and sugar for the 0-hour sample except that the measurement sample was changed to the 24-hour sample, the 48-hour sample, or the 96-hour sample in the quantification (absorbance measurement) of enzyme reaction and sugar for the 0-hour sample. […]

[4] = Dynamic viscoelasticity measurement of corn starch gel; type: physicochemical; conditions: corn starch gel with 10% aqueous solution, 4° C., after 96 hours
Protocol: In 20-mL glass vials, corn starch (manufactured by FUJIFILM Wako Pure Chemical Corporation) was mixed with each of the 10% aqueous solution of 4-trehalosamine (4TA), 10% aqueous solution of trehalose (TRH), 10% aqueous solution of sucrose (SCR), and 10% aqueous solution of glycerol (GOL), which are the test samples, or water as control to a final concentration of 15% (w/w) and uniformly suspended, and the suspensions were autoclaved at 121° C. for 20 minutes to gel them. For each of them, 0-hour sample and 96-hour sample were prepared.
After cooling them to room temperature, dynamic viscoelasticity measurement was performed on the 0-hour sample within 4 hours. The 96-hour sample was left to stand at 4° C. for 96 hours and then subjected to dynamic viscoelasticity measurement.
The dynamic viscoelasticity measurement was performed using a MCR300 rheometer (manufactured by Physica, Stuttgart, Germany) under the condition of the gap of a 25-mm parallel plate measurement tool being 1.0 mm. Under the conditions of a fixed frequency of 1.0 Hz, a strain amplitude of 1%, and 25° C., a storage modulus (G′) and a loss modulus (G″) were measured and a loss tangent (tan δ=G″/G′) was calculated. In FIG. 15K, the value of tan δ is indicated on the vertical axis (n=5, mean±S.D.).

Structure (SMILES): N[C@H]1[C@H](O)[C@@H](O)[C@@H](O[C@H]2O[C@H](CO)[C@@H](O)[C@H](O)[C@H]2O)O[C@@H]1CO [4-trehalosamine]
- absorption and blood circulation after oral administration ([1]; fasted): a portion of orally administered 4-trehalosamine is absorbed and circulates in blood for a certain amount of time
- excretion ([1]; urine and feces): excreted through feces and urine in the original form, without being degraded or modified
- pH buffer effect ([2]; 10 mM aqueous solution, 1 M HCl or 1 M NaOH added): strong pH buffer effect comparable that of tris
- pKa ([2]; aqueous solution, estimated from titration): 6.99
- β-amylase degradation rate (starch aging inhibiting effect) ([3]; final concentration 5% to 15%, 96 hours): maintained β-amylase degradation rate at 96 hours significantly high compared to the other gels
- rate of degradation by β-amylase (starch aging inhibiting effect) ([3]; test sample final concentration 10% (w/w), 6° C., 24 to 96 hours): significantly high rate of degradation by β-amylase at and after 24 hours compared to the other gels
- change in loss tangent (tan δ) value [4]: little change or a slight increase in the loss tangent value
